# Experimental data published in patent publication US20250179059A1 (The Regents of the University of California, priority 2021, published 2025).
# Where two headings read alike, the source gives them in different places.
# What was measured:
# [1] = target: T1, human BRD4 bromodomain II (Homo sapiens, UniProt O60885); experiment: Bromodomain binding assay (AlphaScreen), BRD4 BDII
# T1 construct: human BRD4 bromodomain II [based on Genbank NM_058243, residues 349-460]; host or cells: E. coli
# Outline: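 AlphaScreen competition: His6-BRD4 BDI (aa 44-170) or BDII (aa 349-460) vs biotin-H4(1-21) K5/K8/K12/K16Ac peptide; Ni-chelate acceptor/streptavidin donor beads. HEPES pH 7.5, NaCl, CHAPS, BSA, 1% DMSO; RT. 10-pt 3-fold titration, % peptide binding fitted → IC50.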
# [2] = test system: human SKM-1 acute myeloid leukemia cells; experiment: SKM-1 antiproliferation cell-based assay (ATPlite); settings: Homo sapiens
# Outline: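 Log-phase cells in RPMI 1640/15% FBS were seeded at 34722 cells/mL and exposed for 4 days to nine-concentration DMSO serial dilutions in triplicate. Viability was read as ATP luminescence (ATPlite 1step), and IC50 values came from variable-slope non-linear regression.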
# [3] = AlphaScreen assay, Table C2, read-out: BRD4 BDII IC50
# [4] = SKM-1, 96 h, SKM-1 antiproliferation assay, 4 days, Table C2
# [5] = BRD4 BDII AlphaScreen assay, read-out: BRD4 BD2 IC50
# [6] = SKM-1, SKM-1 antiproliferation assay
SMILES,"IC50 [1, 3] [nM]","GI50 [2, 4] [nM]","IC50 [1, 5] [nM]","GI50 [2, 6] [nM]"
"O=c1ccccn1-c1ccc(-c2cc(F)cc(-c3ccnc(N4CCNCC4)c3)c2O)cc1Cl [Example 502, 1-(3-chloro-5′-fluoro-2′-hydroxy-3′-(2-(piperazin-1-yl)pyridin-4-yl)-[1,1′-biphenyl]-4-yl)pyridin-2(1H)-one]",> 100,≥ 3000,,
"Cc1cc(-c2ccc(-n3ccn(C)c3=O)c(F)c2)c(O)c(-c2cnc(C)c(N3CCN(C(C)(C)C)CC3)c2)n1 [Example 1001, 1-(4-(5′-(4-(tert-butyl)piperazin-1-yl)-3-hydroxy-6,6′-dimethyl-[2,3′-bipyridin]-4-yl)-2-fluorophenyl)-3-methyl-1H-imidazol-2(3H)-one]",,,1 to 10,0.3 to 30
"COc1ncc(-c2cc(F)cc(-c3ccc(-n4ccn(C)c4=O)c(C)c3)c2O)cc1N1CCN(C(C)(C)C)CC1 [Example 948, 1-(3′-(5-(4-(tert-butyl)piperazin-1-yl)-6-methoxypyridin-3-yl)-5′-fluoro-2′-hydroxy-3-methyl-[1,1′-biphenyl]-4-yl)-3-methyl-1,3-dihydro-2H-imidazol-2-one]",,,1 to 10,0.3 to 30
"CC(C)N1CCN(c2ccc(-c3cc(F)cc(-c4ccnc(N5CCNCC5)c4)c3O)cc2Cl)C1=O [Example 364, 1-(3-chloro-5′-fluoro-2′-hydroxy-3′-(2-(piperazin-1-yl)pyridin-4-yl)-[1,1′-biphenyl]-4-yl)-3-isopropylimidazolidin-2-one]",> 100,≥ 3000,,
"CC(=O)Nc1ccc(-c2cccc(-c3cc(N4CCNCC4)nc4[nH]ccc34)c2O)cc1F [Example 286, N-(3-fluoro-2′-hydroxy-3′-(6-(piperazin-1-yl)-1H-pyrrolo[2,3-b]pyridin-4-yl)-[1,1′-biphenyl]-4-yl)acetamide]",10 to 100,300 to 3000,,
"Cc1cc(-c2ccc(-n3ccn(C)c3=O)c(Cl)c2)c(O)c(-c2cnc(N(C)C)c(N3CCN(C(C)(C)C)CC3)c2)n1 [Example 964, 1-(4-(5′-(4-(tert-butyl)piperazin-1-yl)-6′-(dimethylamino)-3-hydroxy-6-methyl-[2,3′-bipyridin]-4-yl)-2-chlorophenyl)-3-methyl-1H-imidazol-2(3H)-one]",,,0.01 to 1,0.3 to 30
"Cn1ccn(-c2ccc(-c3cc(F)cc(-c4cccc(C5(N)CC5)c4)c3O)cc2Cl)c1=O [Example 803, 1-(3″-(1-aminocyclopropyl)-3-chloro-5′-fluoro-2′-hydroxy-[1,1′:3′,1″-terphenyl]-4-yl)-3-methyl-1H-imidazol-2(3H)-one]",1 to 10,30 to 300,,
"Cc1cc(-c2ccc(-n3ccn(C)c3=O)c(Cl)c2)c(O)c(-c2cc(Cl)c(F)c(N3CCN(C(C)(C)C)CC3)c2)n1 [Example 1010, 1-(4-(2-(3-(4-(tert-butyl)piperazin-1-yl)-5-chloro-4-fluorophenyl)-3-hydroxy-6-methylpyridin-4-yl)-2-chlorophenyl)-3-methyl-1H-imidazol-2(3H)-one]",,,0.01 to 1,0.3 to 30
"Cn1ccn(-c2ccc(-c3cc(F)cc(-c4ccc5ncc(C(C)(C)O)cc5c4)c3O)cc2Cl)c1=O [Example 796, 1-(3-chloro-5′-fluoro-2′-hydroxy-3′-(3-(2-hydroxypropan-2-yl)quinolin-6-yl)-[1,1′-biphenyl]-4-yl)-3-methyl-1H-imidazol-2(3H)-one]",1 to 10,30 to 300,,
"CNc1ncc(-c2cc(F)cc(-c3ccc(-n4ccn(C)c4=O)c(Cl)c3)c2O)cc1N1CCN(C(C)(C)C)CC1 [Example 923, 1-(3′-(5-(4-(tert-Butyl)piperazin-1-yl)-6-(methylamino)pyridin-3-yl)-3-chloro-5′-fluoro-2′-hydroxy-[1,1′-biphenyl]-4-yl)-3-methyl-1H-imidazol-2(3H)-one]",,,0.01 to 1,0.3 to 30

# Continued, values first:
"IC50 [1, 3] [nM]","GI50 [2, 4] [nM]","IC50 [1, 5] [nM]","GI50 [2, 6] [nM]",SMILES
1 to 10,0.3 to 30,,,"CSc1ncc(-c2cc(F)cc(-c3ccc(-n4ccn(C)c4=O)c(Cl)c3)c2O)cc1N1CCN(C(C)C)CC1 [Example 817, 1-(3-chloro-5′-fluoro-2′-hydroxy-3′-(5-(4-isopropylpiperazin-1-yl)-6-(methylthio)pyridin-3-yl)-[1,1′-biphenyl]-4-yl)-3-methyl-1H-imidazol-2(3H)-one]"
0.01 to 1,0.3 to 30,,,"Cn1ccn(-c2ccc(-c3cc(F)cc(-c4cncc(N5CCC6(CCCN6)C5)c4)c3O)cc2Cl)c1=O (centres unmarked) [Example 692, 1-(3′-(5-(1,7-diazaspiro[4.4]nonan-7-yl)pyridin-3-yl)-3-chloro-5′-fluoro-2′-hydroxy-[1,1′-biphenyl]-4-yl)-3-methyl-1H-imidazol-2(3H)-one]"
0.01 to 1,0.3 to 30,,,"Cn1cc(-c2cc(F)cc(-c3ccc(-n4ccn(C)c4=O)c(Cl)c3)c2O)cc(N2CC[C@@](C)(N)C2)c1=O [Example 753, (R)-3-(3-amino-3-methylpyrrolidin-1-yl)-5-(3′-chloro-5-fluoro-2-hydroxy-4′-(3-methyl-2-oxo-2,3-dihydro-1H-imidazol-1-yl)-[1,1′-biphenyl]-3-yl)-1-methylpyridin-2(1H)-one]"
0.01 to 1,0.3 to 30,,,"CC(C)N1CCN(c2cc(-c3cc(F)cc(-c4ccc(-n5ccn(C)c5=O)c(Cl)c4)c3O)cn(C)c2=O)CC1 [Example 661, 5-(3′-chloro-5-fluoro-2-hydroxy-4′-(3-methyl-2-oxo-2,3-dihydro-1H-imidazol-1-yl)-[1,1′-biphenyl]-3-yl)-3-(4-isopropylpiperazin-1-yl)-1-methylpyridin-2(1H)-one]"
0.01 to 1,0.3 to 30,,,"CCc1ncc(-c2cc(F)cc(-c3ccc(-n4ccn(C)c4=O)c(Cl)c3)c2O)cc1N1CCN(C(C)C)CC1 [Example 756, 1-(3-chloro-3′-(6-ethyl-5-(4-isopropylpiperazin-1-yl)pyridin-3-yl)-5′-fluoro-2′-hydroxy-[1,1′-biphenyl]-4-yl)-3-methyl-1H-imidazol-2(3H)-one]"
0.01 to 1,0.3 to 30,,,"CN1CCC12CCN(c1cc(-c3cc(F)cc(-c4ccc(-n5ccn(C)c5=O)c(Cl)c4)c3O)ccn1)C2 (centres unmarked) [Example 642, 1-(3-chloro-5′-fluoro-2′-hydroxy-3′-(2-(1-methyl-1,6-diazaspiro[3.4]octan-6-yl)pyridin-4-yl)-[1,1′-biphenyl]-4-yl)-3-methyl-1H-imidazol-2(3H)-one]"
1 to 10,30 to 300,,,"C[C@@H]1CN(c2cc(-c3cc(F)cc(-c4ccc(-n5ccn(C)c5=O)c(Cl)c4)c3N)ccn2)CCN1 [Example 542, (R)-1-(2′-amino-3-chloro-5′-fluoro-3′-(2-(3-methylpiperazin-1-yl)pyridin-4-yl)-[1,1′-biphenyl]-4-yl)-3-methyl-1H-imidazol-2(3H)-one]"
1 to 10,30 to 300,,,"C[C@@H]1CN(c2cc(-c3cc(F)cc(-c4ccc(N5CCN(C)C5=O)c(Cl)c4)c3O)ccn2)CCN1 [Example 359, (R)-1-(3-chloro-5′-fluoro-2′-hydroxy-3′-(2-(3-methylpiperazin-1-yl)pyridin-4-yl)-[1,1′-biphenyl]-4-yl)-3-methylimidazolidin-2-one]"
0.01 to 1,0.3 to 30,,,"CN1CCCC12CCN(c1cc(-c3cc(F)cc(-c4ccc(-n5ccn(C)c5=O)c(Cl)c4)c3O)cn(C)c1=O)C2 (centres unmarked) [Example 696, 5-(3′-chloro-5-fluoro-2-hydroxy-4′-(3-methyl-2-oxo-2,3-dihydro-1H-imidazol-1-yl)-[1,1′-biphenyl]-3-yl)-1-methyl-3-(1-methyl-1,7-diazaspiro[4.4]nonan-7-yl)pyridin-2(1H)-one]"
